Experimental data taken from US20080287430A1, “Furan Compounds Useful As Ep1 Receptor Antagonists” (priority 2005, published 2008).

biological target: T1, human EP1 receptor (Homo sapiens, UniProt P34995); assay: human EP1 calcium mobilisation assay; format: cell-based; details: human EP1, PGE2-induced calcium mobilisation in CHO-K1 cells; free bases or sodium salts; averages of a number of experiments; read-out: functional pKi value (converted)
T1 construct: expressed in transfected cells; host or cells: CHO-K1
T1 sequence (P34995 1-402): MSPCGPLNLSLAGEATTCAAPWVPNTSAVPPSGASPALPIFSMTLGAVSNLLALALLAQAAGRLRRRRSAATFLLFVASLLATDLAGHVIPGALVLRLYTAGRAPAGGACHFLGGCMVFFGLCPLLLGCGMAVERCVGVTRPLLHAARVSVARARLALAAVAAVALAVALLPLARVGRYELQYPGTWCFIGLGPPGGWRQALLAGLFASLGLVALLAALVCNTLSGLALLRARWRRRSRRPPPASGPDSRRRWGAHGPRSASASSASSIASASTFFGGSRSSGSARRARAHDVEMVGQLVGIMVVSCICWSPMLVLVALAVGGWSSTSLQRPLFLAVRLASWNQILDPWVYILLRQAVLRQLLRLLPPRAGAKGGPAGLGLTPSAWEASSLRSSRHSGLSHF
Protocol: Briefly, the antagonist properties of compounds are assessed by their ability to inhibit the mobilisation of intracellular calcium ([Ca^2+]i) in response to activation of EP1 or EP3 receptors by the natural agonist hormone prostaglandin E2 (PGE2). Increasing concentrations of antagonist reduce the amount of calcium that a given concentration of PGE2 can mobilise. The net effect is to displace the PGE2 concentration-effect curve to higher concentrations of PGE2. The amount of calcium produced is assessed using a calcium-sensitive fluorescent dye such as Fluo-4, AM and a suitable instrument such as a Fluorimetric Imaging Plate Reader (FLIPR). Increasing amounts of [Ca^2+]i produced by receptor activation increase the amount of fluorescence produced by the dye and give rise to an increasing signal. The signal may be detected using the FLIPR instrument and the data generated may be analysed with suitable curve-fitting software.
The human EP1 or EP3 calcium mobilisation assay (hereafter referred to as ‘the calcium assay’) utilises Chinese hamster ovary-K1(CHO-K1) cells into which a stable (pCIN; BioTechniques 20 (1996): 102-110) vector containing either EP1 or EP3 cDNA has previously been transfected. Cells are cultured in suitable flasks containing culture medium such as DMEM:F-12 supplemented with 10% v/v foetal calf serum, 2 mM L-glutamine, 0.25 mg/ml geneticin, 100 μM flurbiprofen and 10 μg/ml puromycin.
For assay, cells are harvested using a proprietary reagent that dislodges cells such as Versene. Cells are re-suspended in a suitable quantity of fresh culture media for introduction into a 384-well plate. Following incubation for 24 hours at 37° C. the culture media is replaced with a medium containing Fluo-4 and the detergent pluronic acid, and a further incubation takes place. Concentrations of compounds are then added to the plate in order to construct concentration-effect curves. This may be performed on the FLIPR in order to assess the agonist properties of the compounds. Concentrations of PGE2 are then added to the plate in order to assess the antagonist properties of the compounds.
The data so generated may be analysed by means of a computerised curve-fitting routine. The concentration of compound that elicits a half-maximal inhibition of the calcium mobilisation induced by PGE2 (pIC50) may then be estimated.

SMILES | Ki
O=C(NCc1ccccc1)c1ccc(Cc2cc(Cl)ccc2OCc2ccccc2)o1 [Example 48, 5-({5-Chloro-2-[(phenylmethyl)oxy]phenyl}methyl)-N-(phenylmethyl)-2-furancarboxamide] | < 1 µM
CC(C)NC(=O)c1ccc(Cc2cc(Cl)ccc2OCc2ccccc2)o1 [Example 49, 5-({5-Chloro-2-[(phenylmethyl)oxy]phenyl}methyl)-N-(1-methylethyl)-2-furancarboxamide] | < 1 µM
CC(C)CNC(=O)c1ccc(Cc2cc(Cl)ccc2OCc2ccccc2)o1 [Example 50, 5-({5-Chloro-2-[(phenylmethyl)oxy]phenyl}methyl)-N-(2-methylpropyl)-2-furancarboxamide] | < 1 µM
CC(C)(C)NC(=O)c1ccc(Cc2cc(Cl)ccc2OCc2ccccc2)o1 [Example 51, 5-({5-Chloro-2-[(phenylmethyl)oxy]phenyl}methyl)-N-(1,1-dimethylethyl)-2-furancarboxamide] | < 1 µM
CC(C)(C)CNC(=O)c1ccc(Cc2cc(Cl)ccc2OCc2ccccc2)o1 [Example 52, 5-({5-Chloro-2-[(phenylmethyl)oxy]phenyl}methyl)-N-(2,2-dimethylpropyl)-2-furancarboxamide] | < 1 µM
O=C(NCc1ccccn1)c1ccc(Cc2cc(Cl)ccc2OCc2ccccc2)o1 [Example 53, 5-({5-Chloro-2-[(phenylmethyl)oxy]phenyl}methyl)-N-(2-pyridinylmethyl)-2-furancarboxamide] | ≤ 0.01 µM
CN(C)c1ccc(CNC(=O)c2ccc(Cc3cc(Cl)ccc3OCc3ccccc3)o2)cc1 [Example 54, 5-({5-Chloro-2-[(phenylmethyl)oxy]phenyl}methyl)-N-{[4-(dimethylamino)phenyl]methyl}-2-furancarboxamide] | < 1 µM
CC(C)COc1ccc(Cl)cc1Cc1ccc(C(=O)NC(C)C)o1 [Example 55, 5-({5-Chloro-2-[(2-methylpropyl)oxy]phenyl}methyl)-N-(1-methylethyl)-2-furancarboxamide] | < 1 µM
CC(C)COc1ccc(Cl)cc1Cc1ccc(C(=O)NC(C)(C)C)o1 [Example 56, 5-({5-Chloro-2-[(2-methylpropyl)oxy]-phenyl}methyl)-N-(1,1-dimethylethyl)-2-furancarboxamide] | < 1 µM
CC(C)COc1ccc(Cl)cc1Cc1ccc(C(=O)NCc2ccccn2)o1 [Example 58, 5-({5-Chloro-2-[(2-methylpropyl)oxy]-phenyl}methyl)-N-(2-pyridinylmethyl)-2-furancarboxamide] | < 1 µM
CC(C)COc1ccc(Cl)cc1Cc1ccc(C(=O)n2cnc3ccccc32)o1 [Example 67, 1-{[5-({5-Chloro-2-[(2-methylpropyl)oxy]-phenyl}methyl)-2-furanyl]carbonyl}-1H-benzimidazole] | < 1 µM
CC(C)COc1ccc(Cl)cc1Cc1ccc(C(N)=O)o1 [Example 68, 5-({5-Chloro-2-[(2-methylpropyl)oxy]-phenyl}methyl)-2-furancarboxamide] | < 1 µM
O=C(Nc1ccccc1F)c1ccc(Cc2cc(Cl)ccc2OCc2ccccc2)o1 [Example 69, 5-({5-Chloro-2-[(phenylmethyl)oxy]-phenyl}methyl)-N-(2-fluorophenyl)-2-furancarboxamide] | < 1 µM
O=C(Nc1ccccc1)c1ccc(Cc2cc(Cl)ccc2OCc2ccccc2)o1 [Example 70, 5-({5-Chloro-2-[(phenylmethyl)oxy]-phenyl}methyl)-N-phenyl-2-furancarboxamide] | < 1 µM
Cc1cccc(C)c1NC(=O)c1ccc(Cc2cc(Cl)ccc2OCc2ccccc2)o1 [Example 71, 5-({5-Chloro-2-[(phenylmethyl)oxy]-phenyl}methyl)-N-(2,6-dimethylphenyl)-2-furancarboxamide] | < 1 µM
O=C(Nc1ccccc1Cl)c1ccc(Cc2cc(Cl)ccc2OCc2ccccc2)o1 [Example 72, N-(2-chlorophenyl)-5-({5-chloro-2-[(phenylmethyl)oxy]-phenyl}methyl)-2-furancarboxamide] | < 1 µM

SMILES | Ki
Cc1ccccc1NC(=O)c1ccc(Cc2cc(Cl)ccc2OCc2ccccc2)o1 [Example 73, 5-({5-Chloro-2-[(phenylmethyl)oxy]-phenyl}methyl)-N-(2-methylphenyl)-2-furancarboxamide] | < 1 µM
Cc1cccc(Cl)c1NC(=O)c1ccc(Cc2cc(Cl)ccc2OCc2ccccc2)o1 [Example 74, N-(2-Chloro-6-methylphenyl)-5-({5-chloro-2-[(phenylmethyl)oxy]-phenyl}methyl)-2-furancarboxamide] | < 1 µM
O=C(Nc1ccccc1-c1ccccc1)c1ccc(Cc2cc(Cl)ccc2OCc2ccccc2)o1 [Example 75, N-2-biphenylyl-5-({5-chloro-2-[(phenylmethyl)oxy]-phenyl}methyl)-2-furancarboxamide] | > 1 µM
O=C(Nc1ccccc1Br)c1ccc(Cc2cc(Cl)ccc2OCc2ccccc2)o1 [Example 76, N-(2-bromophenyl)-5-({5-chloro-2-[(phenylmethyl)oxy]-phenyl}methyl)-2-furancarboxamide] | < 1 µM
O=C(c1ccc(Cc2cc(Cl)ccc2OCc2ccccc2)o1)n1cnc2ccccc21 [Example 77, 1-{[5-({5-Chloro-2-[(phenylmethyl)oxy]-phenyl}methyl)-2-furanyl]carbonyl}-1H-benzimidazole] | < 1 µM
NC(=O)c1ccc(Cc2cc(Cl)ccc2OCc2ccccc2)o1 [Example 78, 5-({5-Chloro-2-[(phenylmethyl)oxy]-phenyl}methyl)-2-furancarboxamide] | < 1 µM
O=C(Nc1c(F)cccc1F)c1ccc(Cc2cc(Cl)ccc2OCc2ccccc2)o1 [Example 79, 5-({5-Chloro-2-[(phenylmethyl)oxy]-phenyl}methyl)-N-(2,6-difluorophenyl)-2-furancarboxamide] | ≤ 0.01 µM
CC(C)COc1ccc(Cl)cc1Cc1ccc(C(=O)Nc2c(F)cccc2F)o1 [Example 80, 5-({5-Chloro-2-[(2-methylpropyl)oxy]-phenyl}methyl)-N-(2,6-difluorophenyl)-2-furancarboxamide] | < 1 µM
O=C(Nc1c(F)cccc1F)c1ccc(Cc2cc(Cl)ccc2OCc2ccccc2F)o1 [Example 81, 5-[(5-Chloro-2-{[(2-fluorophenyl)methyl]oxy}phenyl)methyl]-N-(2,6-difluorophenyl)-2-furancarboxamide] | < 1 µM
O=C(Nc1c(F)cccc1F)c1ccc(Cc2cc(Cl)ccc2OCc2ccc(F)cc2)o1 [Example 82, 5-[(5-Chloro-2-{[(4-fluorophenyl)methyl]oxy}-phenyl)methyl]-N-(2,6-difluorophenyl)-2-furancarboxamide] | < 1 µM
O=C(Nc1c(F)cccc1F)c1ccc(Cc2cc(Cl)ccc2OCc2c(F)cc(F)cc2F)o1 [Example 83, 5-[(5-Chloro-2-{[(2,4,6-trifluorophenyl)methyl]oxy}-phenyl)methyl]-N-(2,6-difluorophenyl)-2-furancarboxamide] | < 1 µM
O=C(Nc1c(F)cccc1F)c1ccc(Cc2cc(Cl)ccc2OCc2c(F)cccc2F)o1 [Example 85, 5-[(5-Chloro-2-{[(2,6-difluorophenyl)methyl]oxy}-phenyl)methyl]-N-(2,6-difluorophenyl)-2-furancarboxamide] | < 1 µM
O=C(Nc1c(F)cccc1F)c1ccc(Cc2cc(Cl)ccc2OCc2ccc(F)c(F)c2)o1 [Example 86, 5-[(5-Chloro-2-{[(3,4-difluorophenyl)methyl]oxy}-phenyl)methyl]-N-(2,6-difluorophenyl)-2-furancarboxamide] | < 1 µM
O=C(Nc1c(F)cccc1F)c1ccc(Cc2cc(Cl)ccc2OCc2cccc(F)c2F)o1 [Example 87, 5-[(5-Chloro-2-{[(2,3-difluorophenyl)methyl]oxy}-phenyl)methyl]-N-(2,6-difluorophenyl)-2-furancarboxamide] | < 1 µM
O=C(Nc1c(F)cccc1F)c1ccc(Cc2cc(Cl)ccc2OCc2cc(F)c(F)cc2F)o1 [Example 88, 5-[(5-Chloro-2-{[(2,4,5-trifluorophenyl)methyl]oxy}-phenyl)methyl]-N-(2,6-difluorophenyl)-2-furancarboxamide] | < 1 µM
